# In US9981942B2, “Piperidine derivatives having multimodal activity against pain” (LABORATORIOS DEL DR. ESTEVE S.A., priority 2013, dated 2018):
# Tested on: σ1 receptor and the μ-opiod receptor
# Assay: μ and σ1 dual binding: combined class from the Ki of both radioligand assays
# Design: species or system human; key to μ and σ1 dual binding: +: Both Ki-μ and Ki-σ1>=500 nM; ++: One Ki<500 nM while the other Ki is >=500 nM; +++: Both Ki-μ and Ki-σ1<500 nM; ++++: Both Ki-μ and Ki-σ1<100 nM
# Conditions: combined class for Ki-μ and Ki-σ1; transfected HEK-293 membranes (σ1), transfected CHO-K1 cell membranes (μ)
# Method: To investigate binding properties of σ1 receptor ligands to human σ1 receptor, transfected HEK-293 membranes and [^3H](+)-pentazocine (Perkin Elmer, NET-1056), as the radioligand, were used. The assay was carried out with 7 μg of membrane suspension, 5 nM of [^3H](+)-pentazocine in either absence or presence of either buffer or 10 μM Haloperidol for total and non-specific binding, respectively. Binding buffer contained Tris-HCl 50 mM at pH 8. Plates were incubated at 37° C. for 120 minutes. After the incubation period, the reaction mix was then transferred to MultiScreen HTS, FC plates (Millipore), filtered and plates were washed 3 times with ice-cold 10 mM Tris-HCL (pH7.4). Filters were dried and counted at approximately 40% efficiency in a MicroBeta scintillation counter (Perkin-Elmer) using EcoScint liquid scintillation cocktail
# To investigate binding properties of mu-opioid receptor ligands to human μ-opioid receptor, transfected CHO-K1 cell membranes and [^3H]-DAMGO (Perkin Elmer, ES-542-C), as the radioligand, were used. The assay was carried out with 20 μg of membrane suspension, 1 nM of [^3H]-DAMGO in either absence or presence of either buffer or 10 μM Naloxone for total and non-specific binding, respectively. Binding buffer contained Tris-HCl 50 mM, MgCl2 5 mM at pH 7.4. Plates were incubated at 27° C. for 60 minutes. After the incubation period, the reaction mix was then transferred to MultiScreen HTS, FC plates (Millipore), filtered and plates were washed 3 times with ice-cold 10 mM Tris-HCL (pH 7.4). Filters were dried and counted at approximately 40% efficiency in a MicroBeta scintillation counter (Perkin-Elmer) using EcoScint liquid scintillation cocktail.
# The following scale as been adopted for representing the binding to the σ1 receptor and the μ-opiod receptor expressed as Ki: • + Both Ki-μ and Ki-σ1>=500 nM • ++ One Ki<500 nM while the other Ki is >=500 nM • +++ Both Ki-μ and Ki-σ1<500 nM • ++++ Both Ki-μ and Ki-σ1<100 nM
row,SMILES,μ and σ1 dual binding
1,"CCN(CC)C(=O)Cn1cc(CN2CCC(c3cccc(O)c3)CC2)nn1 [Example 45, N,N-diethyl-2-(4-((4-(3-hydroxyphenyl)piperidin-1-yl)methyl)-1H-1,2,3-triazol-1-yl)acetamide]",++
2,"CC(C)S(=O)(=O)Nc1cccc(C2CCN(Cc3cn(Cc4ccccn4)cn3)CC2)c1 [Example 186, N-(3-(1-((1-(pyridin-2-ylmethyl)-1H-imidazol-4-yl)methyl)piperidin-4-yl)phenyl)propane-2-sulfonamide]",++
3,"Oc1cccc(C2CCN(Cc3cn(Cc4ncccc4F)cn3)CC2)c1 [Example 189, 3-(1-((1-((3-fluoropyridin-2-yl)methyl)-1H-imidazol-4-yl)methyl)piperidin-4-yl)phenol]",++
4,"CC(C)S(=O)(=O)Nc1cccc(C2CCN(Cc3cn(Cc4cnc(C(F)(F)F)nc4)nn3)CC2)c1 [Example 129, N-(3-(1-((1-((2-(trifluoromethyl)pyrimidin-5-yl)methyl)-1H-1,2,3-triazol-4-yl)methyl)piperidin-4-yl)phenyl)propane-2-sulfonamide]",++
5,"CC(C)S(=O)(=O)Nc1cccc(C2CCN(Cc3cn(Cc4ccccn4)nn3)CC2)c1 [Example 81, N-(3-(1-((1-(pyridin-2-ylmethyl)-1H-1,2,3-triazol-4-yl)methyl)piperidin-4-yl)phenyl)propane-2-sulfonamide]",++
6,"CCC(=O)Nc1ccnc(C2CCN(Cc3cn(-c4ccccc4)nn3)CC2)c1 [Example 192, N-(2-(1-((1-phenyl-1H-1,2,3-triazol-4-yl)methyl)piperidin-4-yl)pyridin-4-yl)propionamide]",++
7,"CC(c1ccccn1)n1cc(CN2CCC(c3cccc(NS(C)(=O)=O)c3)CC2)nn1 (stereo not drawn) [Example 86, N-(3-(1-((1-(1-(pyridin-2-yl)ethyl)-1H-1,2,3-triazol-4-yl)methyl)piperidin-4-yl)phenyl)methanesulfonamide]",++
8,"CC(C)S(=O)(=O)Nc1cccc(C2CCN(Cc3cc(-c4ccccn4)no3)CC2)c1 [Example 181, N-(3-(1-((3-(pyridin-2-yl)isoxazol-5-yl)methyl)piperidin-4-yl)phenyl)propane-2-sulfonamide]",++
9,"CC(C)S(=O)(=O)Nc1cccc(C2CCN(Cc3cn(Cc4ccc(C(F)(F)F)cn4)nn3)CC2)c1 [Example 122, N-(3-(1-((1-((5-(trifluoromethyl)pyridin-2-yl)methyl)-1H-1,2,3-triazol-4-yl)methyl)piperidin-4-yl)phenyl)propane-2-sulfonamide]",++

# Same assay, conditions: transfected HEK-293 membranes (σ1), transfected CHO-K1 cell membranes (μ)
row,SMILES,Ki range for both μ and σ1 (dual-binding class) [nM]
1,"CCNC(=O)Nc1cccc(C2CCN(Cc3cn(-c4ccccc4)nn3)CC2)c1 [Example 56, 1-ethyl-3-(3-(1-((1-phenyl-1H-1,2,3-triazol-4-yl)methyl)piperidin-4-yl)phenyl)urea]",< 500
2,"CC(C)Cn1cc(CN2CCC(c3cccc(O)c3)CC2)nn1 [Example 25, 3-(1-((1-isobutyl-1H-1,2,3-triazol-4-yl)methyl)piperidin-4-yl)phenol]",< 100
3,"Oc1cccc(C2CCN(Cc3cn(-c4ccc(F)c(F)c4)nn3)CC2)c1 [Example 147, 3-(1-((1-(3,4-difluorophenyl)-1H-1,2,3-triazol-4-yl)methyl)piperidin-4-yl)phenol]",< 100
4,"Oc1cccc(C2CCN(Cc3cn(Cc4ncccc4Cl)nn3)CC2)c1 [Example 144, 3-(1-((1-((3-chloropyridin-2-yl)methyl)-1H-1,2,3-triazol-4-yl)methyl)piperidin-4-yl)phenol]",< 500
5,"Cc1ccc2cc(-n3cc(CN4CCC(c5cccc(O)c5)CC4)nn3)ccc2n1 [Example 233, 3-(1-((1-(2-methylquinolin-6-yl)-1H-1,2,3-triazol-4-yl)methyl)piperidin-4-yl)phenol]",< 500
6,"Oc1cccc(C2CCN(Cc3cn(-c4ccc(C(F)(F)F)nc4)nn3)CC2)c1 [Example 60, 3-(1-((1-(6-(trifluoromethyl)pyridin-3-yl)-1H-1,2,3-triazol-4-yl)methyl)piperidin-4-yl)phenol]",< 100
7,"CS(=O)(=O)Nc1cccc(C2CCN(Cc3cn(Cc4ccccc4)cn3)CC2)c1 [Example 183, N-(3-(1-((1-benzyl-1H-imidazol-4-yl)methyl)piperidin-4-yl)phenyl)methanesulfonamide]",< 500
8,"Oc1cccc(C2CCN(Cc3cn([C@@H]4Cc5ccccc5[C@@H]4O)nn3)CC2)c1 [Example 96, (1S,2R)-2-(4-((4-(3-hydroxyphenyl)piperidin-1-yl)methyl)-1H-1,2,3-triazol-1-yl)-2,3-dihydro-1H-inden-1-ol]",< 500
9,"CC(=O)Nc1cc(F)cc(C2CCN(Cc3cn(-c4ccccc4)nn3)CC2)c1 [Example 39, N-(3-fluoro-5-(1-((1-phenyl-1H-1,2,3-triazol-4-yl)methyl)piperidin-4-yl)phenyl)acetamide]",< 500
10,"Oc1cccc(C2CCN(Cc3cn([C@@H]4c5ccccc5C[C@H]4O)nn3)CC2)c1 [Example 78, (1R,2R)-1-(4-((4-(3-hydroxyphenyl)piperidin-1-yl)methyl)-1H-1,2,3-triazol-1-yl)-2,3-dihydro-1H-inden-2-ol]",< 500
11,"CS(=O)(=O)Nc1cccc(C2CCN(Cc3cnn(-c4ccccc4)c3)CC2)c1 [Example 163, N-(3-(1-((1-phenyl-1H-pyrazol-4-yl)methyl)piperidin-4-yl)phenyl)methanesulfonamide]",< 100
12,"c1ccc(-n2cc(CN3CCC(c4ccc5nc[nH]c5c4)CC3)nn2)cc1 [Example 21, 6-(1-((1-phenyl-1H-1,2,3-triazol-4-yl)methyl)piperidin-4-yl)-1H-benzo[d]imidazole]",< 500
13,"Oc1cccc(C2CCN(Cc3cn(Cc4cccc(F)c4)nn3)CC2)c1 [Example 63, 3-(1-((1-(3-fluorobenzyl)-1H-1,2,3-triazol-4-yl)methyl)piperidin-4-yl)phenol]",< 100
14,"Oc1cccc(C2CCN(Cc3cn(-c4ccc(F)cc4)nn3)CC2)c1 [Example 36, 3-(1-((1-(4-fluorophenyl)-1H-1,2,3-triazol-4-yl)methyl)piperidin-4-yl)phenol]",< 100
15,"CNS(=O)(=O)c1cccc(C2CCN(Cc3cn(Cc4ccccn4)nn3)CC2)c1 [Example 138, N-methyl-3-(1-((1-(pyridin-2-ylmethyl)-1H-1,2,3-triazol-4-yl)methyl)piperidin-4-yl)benzenesulfonamide]",≥ 500
16,"Oc1cccc(C2CCN(Cc3cc(-c4ccccc4)no3)CC2)c1 [Example 176, 3-(1-((3-phenylisoxazol-5-yl)methyl)piperidin-4-yl)phenol]",< 100
17,"Oc1ccc(F)c(C2CCN(Cc3cn(Cc4ccccn4)nn3)CC2)c1 [Example 137, 4-fluoro-3-(1-((1-(pyridin-2-ylmethyl)-1H-1,2,3-triazol-4-yl)methyl)piperidin-4-yl)phenol]",< 500
18,"COc1c(NS(C)(=O)=O)cccc1C1CCN(Cc2cn(-c3ccccc3)nn2)CC1 [Example 101, N-(2-methoxy-3-(1-((1-phenyl-1H-1,2,3-triazol-4-yl)methyl)piperidin-4-yl)phenyl)methanesulfonamide]",< 500
